Source: patent US10143747B2, “Breast cancer therapeutics” (IMBA—INSTITUT FÜR MOLEKULARE BIOTECHNOLOGIE GMBH, priority 2010, dated 2018)

B1: RANKL: recombinant RANKL protein, ligand of RANK, used as stimulus (1 μg/ml or 1 μg i.p.) (protein, UniProt O35235 139-316, looked up)
Tumor necrosis factor ligand …: FSGAPAMMEGSWLDVAQRGKPEAQPFAHLTINAASIPSGSHKVTLSSWYHDRGWAKISNMTLSNGKLRVNQDGFYYLYANICFRHHETSGSVPTDYLQLMVYVVKTSIKIPSSHNLMKGGSTKNWSGNSEFHFYSINVGGFFKLRAGEEISIQVSNPSLLDPDQDATYFGAFKVQDID

Assays:
Lin-CD24+CD49f^hi cells = experiment: FACS quantification of stem cell-enriched Lin-CD24+CD49f hi mammary population (MaSC); format: in vivo, mouse; settings: MPA for 3 days
Experimental: a,b, Induction of RANKL expression by the progesterone-derivative MPA. Nulliparous wild type females were s.c. implanted with slow-release MPA pellets or treated with surgery sham. a, RANKL mRNA was determined in purified mammary epithelial cells by qRT-PCR three days after implantation. Data are shown as fold change compared to sham treatment (+/−sem) (n=3). b, In situ […] immunostaining of progesterone receptor (PR, red) and RANKL (green) in mammary epithelial cells after 3d MPA treatment. c, Induction of soluble RANKL protein assayed on isolated mammary gland epithelial cells from control, but not in prolactin receptor mutant (PRL-R KO) females on day 3 after s.c. MPA implantation. […] Proliferation was determined by in situ Ki67 immunostaining. e,f, Marked increase of the stem cell-enriched CD24^+CD49^high population (MaSC) in MPA-treated mammary glands in control but not in RANK^Δmam mammary glands. e, Representative FACS profiles showing CD24 and CD49 expression of lineage negative (CD31^− (endothelial cells) CD45^− (hematopoietic cells) […] (erythroid cells)) of mammary MaSCs from MPA- or sham-treated 8-week old virgin females. f, Quantification of MaSC-enriched CD24^+CD49^high population from mammary glands of MPA- or sham-treated virgin RANK^Δmam and littermate control females. […]

[1] = test system: human SKBR3 breast cancer cells; experiment: Western blotting of RANKL-stimulated SKBR3 cells; format: cell-based; settings: RANKL 1 μg/ml
Experimental: a, Western blotting for phosphorylated (P) p65 NFκB, total p65 NFκB, phosphorylated (P) IκBα, total IκBα, phosphorylated (P) ERK1/2, total ERK1/2, phosphorylated (P) p38-MAPK, and p38-MAPK in human SKBR3 breast cancer cells in response to RANKL stimulation (1 μg/ml). Data are representative of 3 experiments. b, Growth curve of SKBR3 breast cancer cells cultured in normal growth medium (control, DMEM supplemented with 10% FCS) or in the presence of RANKL (1 μg/ml). Cell numbers were determined by counting live cells (trypan blue-exclusion) over 3 days. c, Onset of palpable mammary tumors in NFATc1^Δmam (n=10) and age matched littermate control (n=16) females treated with MPA pellets and DMBA. Data are shown as percentage of tumor free mice after the last DMBA challenge. No significant difference was found. d, Quantification of NFATc1 mRNA expression in purified mammary epithelial cells (MECs) and MPA-driven mammary tumors from NFATc1^Δmam and littermate control females. mRNA was determined by qRT-PCR. Data are shown as fold change compared to control (+/−sem). n=5 Per group. *P<0.05 (Student's t-test).
The human epithelial breast tumor cell line SKBR3 and primary non-transformed mouse mammary epithelial cells were left untreated or stimulated with recombinant murine RANKL^ref. 9. Adenocarcinomas were isolated from control and mutant mice and total protein lysates prepared. […]

Molecule	expansion of Lin-CD24+CD49f hi cells (Lin-CD24+CD49f^hi cells; RANKΔmam females)	expansion of Lin-CD24+CD49f hi cells (Lin-CD24+CD49f^hi cells; control females)	NFκB, p38-MAPKs and ERK activation [1]
CC(=O)O[C@]1(C(C)=O)CC[C@H]2[C@@H]3C[C@H](C)C4=CC(=O)CC[C@]4(C)[C@H]3CC[C@@]21C [MPA, medroxyprogesterone acetate]	did not occur	two-fold	–
B1	–	–	induced NFκB, p38-MAPKs and ERK activation
